# ChEMBL document CHEMBL1201862, “PubChem BioAssay data set” (2004)
#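 Test compounds were applied to cells in 96-well plates for 48 hours at 5 doses. GI50 = concentration required for 50% inhibition of growth.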 Activity calls are given as the source filed them. Cut-off read from the data, not from the text of the source: active = GI50 up to about 1.1 µM and inactive = higher.
# Legend:
# Experiment in all cases: NCI-60 cell line screen, 48 h
# ACHN = test system: ACHN
# SW-620 = test system: SW-620
# 786-0 = test system: 786-0
# SK-MEL-2 = test system: SK-MEL-2
# HL-60 = test system: HL-60
# HCT-116 = test system: HCT-116
# A549 = test system: A549
# OVCAR-8 = test system: OVCAR-8
# OVCAR-5 = test system: OVCAR-5
# KM-20L2 = test system: KM-20L2
# HCT-15 = test system: HCT-15
# SNB-75 = test system: SNB-75
# SNB-19 = test system: SNB-19
# IGROV-1 = test system: IGROV-1
# NCI-H226 = test system: NCI-H226
# HT-29 = test system: HT-29
# DU-145 = test system: DU-145
# PC-3 = test system: PC-3
# SR = test system: SR
# RXF 393 = test system: RXF 393
SMILES,GI50 (ACHN),GI50 (SW-620),GI50 (786-0),GI50 (SK-MEL-2),GI50 (HL-60),GI50 (HCT-116),GI50 (A549),GI50 (OVCAR-8),GI50 (OVCAR-5),GI50 (KM-20L2),GI50 (HCT-15),GI50 (SNB-75),GI50 (SNB-19),GI50 (IGROV-1),GI50 (NCI-H226),GI50 (HT-29),GI50 (DU-145),GI50 (PC-3),GI50 (SR),GI50 (RXF 393)
N=C1SCCS1,> 100 µM (inactive),> 100 µM (inactive),> 100 µM (inactive),> 100 µM (inactive),> 100 µM (inactive),> 100 µM (inactive),> 100 µM (inactive),> 100 µM (inactive),> 100 µM (inactive),> 100 µM (inactive),> 100 µM,36.2 µM (inactive),> 100 µM (inactive),> 100 µM (inactive),> 100 µM (inactive),> 100 µM (inactive),–,–,–,–
COc1ccc(NC(=O)CSC(=O)c2ccccc2)c(SCCSSCCSc2cc(OC)ccc2NC(=O)CSC(=O)c2ccccc2)c1,> 100 µM (inactive),> 100 µM (inactive),> 100 µM (inactive),27.9 µM (inactive),4.22 µM (inactive),48.8 µM (inactive),> 100 µM (inactive),> 100 µM (inactive),> 100 µM (inactive),–,> 100 µM,> 100 µM (inactive),> 100 µM (inactive),67.5 µM (inactive),> 100 µM (inactive),> 100 µM (inactive),> 100 µM (inactive),> 100 µM (inactive),3.75 µM (inactive),> 100 µM (inactive)
O=C1/C(=C\c2ccccc2)c2ccccc2N1/N=C\c1ccccc1,> 100 µM (inactive),59 µM (inactive),81.5 µM (inactive),> 100 µM (inactive),–,77.4 µM (inactive),76.2 µM (inactive),> 100 µM (inactive),> 100 µM (inactive),> 100 µM (inactive),43.9 µM,29 µM (inactive),> 100 µM (inactive),> 100 µM (inactive),> 100 µM (inactive),25.1 µM (inactive),–,–,–,–
C[N+](C)(C)CC(=O)N/N=C(/Cc1nc2ccc(Cl)cc2nc1O)C1=NS(=O)(=O)c2cc(S(N)(=O)=O)c(Cl)cc2N1,> 100 µM (inactive),> 100 µM (inactive),> 100 µM (inactive),> 100 µM (inactive),> 100 µM (inactive),> 100 µM (inactive),> 100 µM (inactive),> 100 µM (inactive),> 100 µM (inactive),> 100 µM (inactive),–,–,> 100 µM (inactive),> 100 µM (inactive),–,> 100 µM (inactive),–,–,> 100 µM (inactive),> 100 µM (inactive)
O=C1OC2C=CC1C1(CCOC1=O)C2 (centres undefined),> 100 µM (inactive),> 100 µM (inactive),> 100 µM (inactive),> 100 µM (inactive),> 100 µM (inactive),> 100 µM (inactive),> 100 µM (inactive),> 100 µM (inactive),> 100 µM (inactive),> 100 µM (inactive),> 100 µM,46.8 µM (inactive),> 100 µM (inactive),48.8 µM (inactive),> 100 µM (inactive),–,–,–,> 100 µM (inactive),–
COc1ccccc1/C=C(\NC(=O)c1ccccc1)c1nc2ccc(Cl)cc2[nH]1,21.5 µM (inactive),29.9 µM (inactive),27.4 µM (inactive),25.6 µM (inactive),–,29 µM (inactive),19.6 µM (inactive),22.8 µM (inactive),38 µM (inactive),48.8 µM (inactive),30.3 µM,22.4 µM (inactive),29.5 µM (inactive),26.9 µM (inactive),23.3 µM (inactive),30.8 µM (inactive),–,–,–,22.4 µM (inactive)
O=C(Nc1nnc(S)[nH]1)C(=O)C1C(=O)Nc2ccccc2[S+]1[O-] (centres undefined),> 100 µM (inactive),> 100 µM (inactive),> 100 µM (inactive),–,> 100 µM (inactive),> 100 µM (inactive),> 100 µM (inactive),> 100 µM (inactive),–,> 100 µM (inactive),> 100 µM,> 100 µM (inactive),> 100 µM (inactive),> 100 µM (inactive),–,> 100 µM (inactive),–,–,> 100 µM (inactive),–
CC1(C)COC(C23C4C5C2C2C3C4C52I)=N1 (centres undefined),> 100 µM (inactive),> 100 µM (inactive),> 100 µM (inactive),–,–,–,> 100 µM (inactive),> 100 µM (inactive),> 100 µM (inactive),> 100 µM (inactive),> 100 µM,–,> 100 µM (inactive),> 100 µM (inactive),> 100 µM (inactive),> 100 µM (inactive),–,–,–,> 100 µM (inactive)
COc1ccc(OC)c(CSc2ccc(OC)c(OC)c2)c1,> 100 µM (inactive),> 100 µM (inactive),> 100 µM (inactive),49.9 µM (inactive),> 50.5 µM (inactive),> 86.9 µM (inactive),> 79.4 µM (inactive),> 95.3 µM (inactive),> 100 µM (inactive),–,> 73.8 µM,57.1 µM (inactive),> 100 µM (inactive),99.1 µM (inactive),> 71.4 µM (inactive),> 73.3 µM (inactive),> 100 µM (inactive),> 79.8 µM (inactive),> 100 µM (inactive),> 100 µM (inactive)
CC1CCC(=O)C(C(=O)CC2CC(=O)NC(=O)C2)C1 (centres undefined),> 100 µM (inactive),> 100 µM (inactive),> 100 µM (inactive),> 100 µM (inactive),> 100 µM (inactive),> 100 µM (inactive),> 100 µM (inactive),> 100 µM (inactive),> 100 µM (inactive),–,> 100 µM,> 100 µM (inactive),> 100 µM (inactive),> 100 µM (inactive),> 100 µM (inactive),> 100 µM (inactive),> 100 µM (inactive),> 100 µM (inactive),> 100 µM (inactive),> 100 µM (inactive)
c1ccc(SC(CCCCC(Sc2ccccc2)Sc2ccccc2)Sc2ccccc2)cc1,> 100 µM (inactive),> 100 µM (inactive),> 100 µM (inactive),> 100 µM (inactive),> 100 µM (inactive),> 100 µM (inactive),> 100 µM (inactive),> 100 µM (inactive),–,> 100 µM (inactive),> 100 µM,> 100 µM (inactive),> 100 µM (inactive),–,–,–,–,–,> 100 µM (inactive),> 100 µM (inactive)
CCCCCCCCCCCCCC(=O)OCC1OC(OC)C(NC(=O)N(CCCl)N=O)C(O)C1O (centres undefined),10.5 µM (inactive),8.79 µM (inactive),2.59 µM (inactive),38.1 µM (inactive),–,14.3 µM (inactive),15.6 µM (inactive),21.8 µM (inactive),25.6 µM (inactive),21 µM (inactive),34.8 µM,8.89 µM (inactive),18.5 µM (inactive),29.6 µM (inactive),24.8 µM (inactive),19.9 µM (inactive),–,–,3.71 µM (inactive),16.4 µM (inactive)
COc1ccc2cc(/C=N\NC(=O)Nc3ccc([N+](=O)[O-])cc3)ccc2c1,13.9 µM (inactive),17.5 µM (inactive),8.59 µM (inactive),13.3 µM (inactive),11 µM (inactive),11.6 µM (inactive),11.2 µM (inactive),11.7 µM (inactive),18.5 µM (inactive),–,15.1 µM,13.2 µM (inactive),13.2 µM (inactive),13.8 µM (inactive),> 10 µM (inactive),11.5 µM (inactive),7.41 µM (inactive),11.8 µM (inactive),> 10 µM (inactive),11.2 µM (inactive)
COC(=O)NC(Nc1ccc(Cl)cc1Cl)(C(F)(F)F)C(F)(F)F,10.5 µM (inactive),30.9 µM (inactive),> 100 µM (inactive),> 100 µM (inactive),29.3 µM (inactive),64.7 µM (inactive),38.4 µM (inactive),70.8 µM (inactive),> 100 µM (inactive),–,4.38 µM,> 100 µM (inactive),> 100 µM (inactive),61.7 µM (inactive),> 100 µM (inactive),> 100 µM (inactive),35.3 µM (inactive),15.1 µM (inactive),5.31 µM (inactive),> 100 µM (inactive)
Cc1ccc([N+](=O)[O-])cc1S(=O)(=O)Nc1ccc(C2=NN(S(=O)(=O)c3cc([N+](=O)[O-])ccc3C)C(c3ccccc3O)C2)cc1 (centres undefined),80.4 µM (inactive),> 100 µM (inactive),30.8 µM (inactive),31.5 µM (inactive),> 100 µM (inactive),> 100 µM (inactive),82.2 µM (inactive),> 100 µM (inactive),> 100 µM (inactive),–,> 100 µM,31.1 µM (inactive),42.4 µM (inactive),98.9 µM (inactive),> 100 µM (inactive),> 100 µM (inactive),> 100 µM (inactive),> 100 µM (inactive),> 100 µM (inactive),36.8 µM (inactive)
O=C(CCCCCCC(=O)Nc1cccnc1)NO [PYROXAMIDE],15.7 µM (inactive),3.4 µM (inactive),7.21 µM (inactive),2.72 µM (inactive),10.2 µM (inactive),3.54 µM (inactive),21.7 µM (inactive),1.78 µM (inactive),4.14 µM (inactive),–,34.4 µM,18.1 µM (inactive),16.1 µM (inactive),14.7 µM (inactive),36.3 µM (inactive),3.14 µM (inactive),3.71 µM (inactive),7.26 µM (inactive),> 100 µM (inactive),5.89 µM (inactive)
